Test results: article PMC4432651, “Dynamic interplay between catalytic and lectin domains of GalNAc-transferases modulates protein O-glycosylation” (Nature Communications, 2015)
Where a SMILES comes first, the peptide text is derived from it. The star is where a group is joined. αGalNAc = CC(=O)N[C@@H]1[C@@H](O)[C@@H](O)[C@@H](CO)O[C@@H]1*

What was measured:
[1] = biological target: T1, GalNAc-T2 (Homo sapiens, UniProt Q10471); test: X-ray crystal structures of GalNAc-T2 complexes; format: binding; conditions: co-crystallization with UDP and Mn+2; flexible loop conformation
T1 construct: made in house
Experimental: In all cases, crystals were grown by hanging drop vapour diffusion at 18 °C. […] The protein solution consisting of 3.5 mg ml^−1 of GalNAcT-2, 5 mM UDP, 5 mM MnCl2 and 6 mM MUC5AC-13 in the same buffer described above was mixed with the precipitant solution containing 1.6 M ammonium sulfate, 100 mM sodium chloride and 100 mM HEPES (pH 7). The crystals were cryoprotected in saturated lithium sulfate and frozen in a nitrogen gas stream cooled to 100 K.
All data were processed and scaled using the XDS package[34] and CCP4 software. The crystal structures were solved by molecular replacement with Phaser[35] and using the PDB entry 4D0T as the template. Initial phases were further improved by cycles of manual model building in Coot[36] and refinement with REFMAC5 (ref. [37]). The AUs of the tetragonal crystals contain 1 molecule of GalNAc-T2 (Fig. 1). Coordinates and structure factors have been deposited in the Worldwide Protein Data Bank (wwPDB, and see Table 1 for the pdb codes).

[2] = biological target: T1, GalNAc-T2; test: Tryptophan fluorescence spectroscopy, dissociation constants of GalNAc-T2 against peptides; format: binding; conditions: Kd in the absence of UDP/Mn+2 compared with presence of the nucleotide
Experimental: All experiments were carried out in a Cary Eclipse spectrofluorometer (Varian) at 25 °C with GalNAc-T2 at 1 μM, and concentrations of peptides varying from 1 to 500 μM in 25 mM Tris, 150 mM NaCl, pH 7.5. The same experiments were also performed in the same buffer but containing 400 μM UDP and 1 mM MnCl2. Fluorescence emission spectra were recorded in the 300–400 nm range with an excitation wavelength of 280 nm, with slit width of 5 nm. The data analysis was performed in Prism (GraphPad software) considering a model with a single binding site (see equation (1), where F0 is the intrinsic fluorescence of the enzyme in the absence of quencher (Q), F1 is the observed fluorescence at a given quencher concentration, fa is the fractional degree of fluorescence and Kd is the dissociation constant.

[3] = biological target: T1, GalNAc-T2; test: SAXS with Ensemble Optimization Method: GalNAc-T2 conformations/oligomers with ligands; conditions: GalNAc-T2 5 mg/ml, 25 mM TRIS pH 7.5, 10 mM MnCl2, 10 °C; for Dmax: maximum intramolecular distance, GNOM; for all read-outs here: values in Å
Experimental: SAXS measurements were performed at the European Molecular Biology Laboratory on the storage ring PETRA-III (DESY-Hamburg) on the P12 beamline equipped with a robotic sample changer and a PILATUS-2M. The analysis of the SAXS data was performed by using the EOM[31]. Additional details are in Supplementary Methods. […]
Small-angle X-ray scattering (SAXS) and data analysis
All experiments were performed in a buffer consisting of 25 mM TRIS pH 7.5, 10 mM MnCl2. The first set of experiments contained three different protein concentrations: 10 mg/ml (180 µM), 5 mg/ml (90 µM), 2.5 mg/ml (45 µM) and 1 […]
mg/ml (18 µM). The protein was measured alone and in the presence of ten times molar excess of UDP, UDP-GalNAc, UDP-EA2 peptide, MUC5AC-13, UDP-MUC5AC-13, MUC5AC, and UDP-MUC5AC. The second set of experiments was carried out with the protein concentration fixed at 5 mg/ml, and increasing concentrations of UDP (450 µM, 900 µM, 1.8 mM, 4.5 mM and 9 mM). The concentration of MUC5AC-13 was also changed as follows: 1 mM, 5 mM and 7.5 […]
Synchrotron SAXS measurements were performed at the European Molecular
Biology Laboratory (EMBL) on the storage ring PETRA-III (DESY-Hamburg) on the P12 beamline equipped with a robotic sample changer and a PILATUS-2M. The sample-detector distance was 3.1 m. The scattering intensity, I(s), was recorded at 10 °C in a momentum transfer range of 0.007<s<0.444 Å -1, where s = (4πsinθ )/λ , 2θ is the scattering angle, and λ = 1.24 Å is the X-ray wavelength. Twenty consecutive 0.05 second measurements were performed for protein samples and buffers to monitor for radiation damage that were subsequently averaged (no systematic radiation effects were observed). Buffer scattering profiles were subtracted from the sample ones using standard procedures 8. The values of the forward scattering, I(0), and radii of gyration, Rg, were calculated from the experimental SAXS patterns using Guinier’s approximation (Supplementary Fig. 4 and 5), I(s) = I(0)exp(-s2Rg2/3), which is valid in the range sRg < 1.3.
Structural analysis of the SAXS data was performed using the Ensemble Optimization Method (EOM)9. A pool of 10,000 monomeric structures of GalNac-T2 was constructed with the program RanCh9 by connecting three-dimensional structures of the catalytic and the lectin domains, extracted from the crystallographic structure 2FFU, with a flexible linker of 12 residues with random coil conformations. To […]
properly describe the data, these monomeric ensembles were enriched with 100 equivalent curves corresponding to one dimeric arrangement. As we tested three dimers, we built three different ensembles with the same 10,000 monomeric conformations and 100 copies of each one of the dimers. The three different dimers used for SAXS are shown in Supplementary Fig. 3c and correspond to three different crystal structures obtained under different conditions.
The scattering profiles of all members of the pool were computed with the program CRYSOL using standard parameters10. The pool of structures/profiles was submitted to the genetic algorithm (GA) with the aim to select a subensemble of 50 structures/curves with the capacity to collectively describe the experimental SAXS […]
was repeated 200 times starting from different randomly selected subensembles, and the resulting solutions were analysed together. The same pool was used to describe all the measured data. Results were quantitatively analysed by displaying the Rg distributions of the selected ensembles and the relative population of monomeric and dimeric species.
Three different dimeric arrangements were introduced individually in the pool. In all three cases the dimers display similar contacts between the lectin domains and the lectin domain of one monomer with the catalytic domain of a second monomer (Supplementary Fig. 3c). We can distinguish the crystallographic dimers by the buried area parameter inferred from the PISA server. The dimers present in the crystal structure of GalNAc-T2-UDP complex (PDB entry 2FFV) are the most compact ones […]

[4] = biological target: T1, GalNAc-T2; test: Time-lapse AFM of single GalNAc-T2 molecules with ligands; conditions: in the presence of Mn+2; GalNAc-T2 2.0 nM on mica, UDP, UDP-GalNAc and MnCl2 20.0 nM, PBS pH 7.4, 20 °C
Experimental: AFM measurements were performed using a MultiMode 8 AFM system (Bruker). […] Additional details are in Supplementary Methods. […]
simulations were performed with the acceptor amino acid – UDPGalNAc distance and the RMSD of the Cα peptide carbon atoms as collective variables.
The values of the height and width of the Gaussian-like biasing potential were selected as 1.0 kcal·mol -1 and 0.25 Å, respectively. A temperature window of ΔT = 25000 K for the well-tempered algorithm was used together with a deposition time of 1 ps. The simulation was continued until the system completely explored the free energy landscape several times which, in terms of the simulation time, corresponds to approximately 100 ns for each metadynamics run.
Atomic Force Microscopy Imaging
In Tapping Mode image operation the cantilever driven by a piezoelectric actuator vibrates near its resonance frequency. Upon approaching the sample, the tip briefly touches the surface at the bottom of each swing, resulting in a decrease in oscillation amplitude. […]
AFM scanning requires the sample be immobilized on a nanoflat surface not to be swept away. […] The concentration of the protein incubated on the mica sheets was suitable to get isolated features that could be analyzed individually. […]
GalNAc-T2 presents a net positive charge at the working pH conditions due to its theoretical isoelectric point of 8.3. The immobilization of enzymes on mica was previously evaluated observing clearly they preserve the enzymatic activity5.
To determine how the ligands affect the conformational dynamics of GalNAc-T2, the enzyme was also incubated with ligands for 10 min under mild stirring at room temperature. […] AFM images were further analyzed by using the WSxM software6. […] At least 10 images of 10 different areas of 500 nm2 were analyzed for every sample and environment. Furthermore, each feature or associate was analyzed in detail with the zoom function of the WSxM program, performed without losing image information and or the discarding of artifacts. […]

[5] = ligand molar ratio GalNAc-T2:ligand 1:10

T1 sequence (Q10471 75-571 limits assumed): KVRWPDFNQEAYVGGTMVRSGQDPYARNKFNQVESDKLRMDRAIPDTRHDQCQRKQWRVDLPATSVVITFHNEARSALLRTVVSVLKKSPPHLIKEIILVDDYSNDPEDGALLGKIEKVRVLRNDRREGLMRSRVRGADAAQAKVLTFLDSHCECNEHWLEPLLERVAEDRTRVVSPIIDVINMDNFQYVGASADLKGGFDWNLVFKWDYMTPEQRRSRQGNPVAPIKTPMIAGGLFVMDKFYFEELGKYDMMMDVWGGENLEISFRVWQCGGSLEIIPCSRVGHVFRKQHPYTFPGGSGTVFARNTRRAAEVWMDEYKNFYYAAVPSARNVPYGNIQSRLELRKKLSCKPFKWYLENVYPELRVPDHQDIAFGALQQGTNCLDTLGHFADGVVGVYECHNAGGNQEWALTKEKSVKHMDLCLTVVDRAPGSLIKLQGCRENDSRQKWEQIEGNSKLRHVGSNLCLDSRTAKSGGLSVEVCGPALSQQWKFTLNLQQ

CC(=O)N[C@H]1[C@@H](O[C@H](C)[C@H](NC(=O)[C@@H](NC(=O)[C@H](CO)NC(=O)[C@@H](NC(=O)[C@@H](NC(=O)[C@@H]2CCCN2C(=O)[C@@H](NC(=O)[C@@H]2CCCN2C(=O)[C@H](CO)NC(=O)[C@@H]2CCCN2C(=O)[C@@H](NC(=O)[C@@H](NC(=O)CN)[C@@H](C)O)[C@@H](C)O[C@H]2O[C@H](CO)[C@H](O)[C@H](O)[C@H]2NC(C)=O)C(C)C)[C@@H](C)O)[C@@H](C)O)[C@@H](C)O)C(=O)N[C@@H](CO)C(=O)N[C@@H](C)C(N)=O)O[C@H](CO)[C@H](O)[C@@H]1O [MUC5AC-3-13] (H-GTT(αGalNAc)PSPVPTTSTT(αGalNAc)SA-NH2; N-terminus assumed)
form of GalNAc-T2 bound in crystal [1]: bound to the inactive form of GalNAc-T2

CC(=O)NCC(=O)N[C@H](C(=O)N[C@H](C(=O)N1CCC[C@H]1C(=O)N[C@@H](CO)C(=O)N1CCC[C@H]1C(=O)N[C@H](C(=O)N1CCC[C@H]1C(=O)N[C@H](C(=O)N[C@H](C(=O)N[C@@H](CO)C(=O)N[C@H](C(=O)N[C@H](C(=O)N[C@@H](CO)C(=O)N[C@@H](C)C(N)=O)[C@@H](C)O)[C@@H](C)O)[C@@H](C)O)[C@@H](C)O)C(C)C)[C@@H](C)O)[C@@H](C)O [MUC5AC] (Ac-GTTPSPVPTTSTTSA-NH2; N-terminus assumed)
Kd in the absence vs presence of UDP/Mn+2 [2]: fourfold better
Rg from p(r) (GNOM) ([3]; ligand molar ratio 1:10): 33.4 Å
Dmax ([3]; ligand molar ratio 1:10): 120 Å
Rg (Guinier) [3, 5]: 32.3±0.3 Å
Rg (Guinier) ([3]; peptide + UDP (1:10)): 32.0±0.2 Å
Rg from p(r) (GNOM) ([3]; peptide + UDP (1:10)): 33.3 Å
Dmax ([3]; peptide + UDP (1:10)): 120 Å

CC(=O)N[C@H]1[C@@H](OP(=O)(O)OP(=O)(O)OC[C@H]2O[C@@H](n3ccc(=O)[nH]c3=O)[C@H](O)[C@@H]2O)O[C@H](CO)[C@H](O)[C@@H]1O [UDP-GalNAc, uridine diphosphate N-acetylgalactosamine, reference compound]
Rg from p(r) (GNOM) ([3]; ligand molar ratio 1:10): 34.6 Å
Dmax ([3]; ligand molar ratio 1:10): 124 Å
Rg (Guinier) [3, 5]: 34.7±0.4 Å
conformational states of GalNAc-T2 observed [4]: either the very compact or the compact structure
